Experimental data taken from US7250269B2, “Composition for assaying glycoprotein” (Asahi Kasei Pharma Corporation, priority 2001, dated 2007).

Tests used:
Type in all cases: biochemical
[1] = molecular target: Fusarium oxysporum IFO-9972 fructosyl amino acid oxidase (FOD), mutant FOD-M, 372nd lysine of SEQ ID NO: 1 replaced with methionine, SEQ ID NO: 3 (Fusarium oxysporum, UniProt X0D315, K373M); assay: Substrate specificity of mutant FOD-M, Table 6 (372nd lysine replaced with methionine); details: for Kcat: substrate glycated amino acid
Experimental: (§1) <<Method for Measuring Activity of Enzyme Reacting with Glycated Amino Acid>>
(§2) <Composition of Reaction Solution>
(§3) The glycated amino acid substrate specificity of FOD-mutated recombinant contained in the cell extract prepared in Example 16 was measured using the above-mentioned FOD enzyme activity measuring method. As a result, two mutants of which the reactivity with glycated valine is less than 1/1,000 the reactivity with glycated lysine were identified among candidate strains. These were regarded as the target mutants.
(§4) To observe the effect of replacement with other amino acids at the mutated amino acid site identified in Example 19, the site-directed mutagenesis according to the method of Kunkel et al. was carried out. Synthesis of an oligonucleotide having the base sequence of 1-27 in the sequence table Sequence ID No. 7 was consigned to an outside source (BEX Co., Ltd.). The oligonucleotide was subjected to the site-directed mutagenesis using the Mutan-K kit (manufactured by Takara Shuzo Co., Ltd.) according to the manual attached to the kit. The mutant gene obtained was incorporated again into the expression plasmid pTV119N, introduced into Escherichia coli host, and cultured at 30° C. for 16 hours in a 3.7% BHI liquid medium containing 50 μg/ml of ampicillin and 1 mM of IPTG to produce mutant FOD protein.
(§5) The mutant obtained by replacing the lysine with tryptophan was named FOD-W, the expression plasmid producing the FOD-W was named pcmFOD3, the mutant obtained by replacing the lysine with methionine was named FOD-M, the expression plasmid producing the FOD-M was named pcmFOD4, the mutant obtained by replacing the lysine with valine was named FOD-V, and the expression plasmid producing the FOD-V was named pcmFOD5.

[2] = molecular target: Fusarium oxysporum IFO-9972 fructosyl amino acid oxidase (FOD), mutant with 372nd lysine of SEQ ID NO: 1 replaced with alanine (Fusarium oxysporum, UniProt X0D315, K373A); assay: Substrate specificity of mutant FOD, Table 6 (372nd lysine replaced with alanine); details: for Kcat: substrate glycated amino acid
Experimental: as §1, §2, §3, §4

[3] = molecular target: Fusarium oxysporum IFO-9972 fructosyl amino acid oxidase (FOD), mutant with 372nd lysine of SEQ ID NO: 1 replaced with serine (Fusarium oxysporum, UniProt X0D315, K373S); assay: Substrate specificity of mutant FOD, Table 6 (372nd lysine replaced with serine); details: for Kcat: substrate glycated amino acid
Experimental: as §1, §2, §3, §4

[4] = molecular target: Fusarium oxysporum IFO-9972 fructosyl amino acid oxidase (FOD), mutant with 372nd lysine of SEQ ID NO: 1 replaced with arginine (Fusarium oxysporum, UniProt X0D315, K373R); assay: Substrate specificity of mutant FOD, Table 6 (372nd lysine replaced with arginine); details: for Kcat: substrate glycated amino acid
Experimental: as §1, §2, §3
The base sequences of the mutant FOD genes obtained in Example 18 were determined according to the dideoxy method.
as §4

[5] = molecular target: Fusarium oxysporum IFO-9972 fructosyl amino acid oxidase (FOD), mutant FOD-V, 372nd lysine of SEQ ID NO: 1 replaced with valine, SEQ ID NO: 4 (Fusarium oxysporum, UniProt X0D315, K373V); assay: Substrate specificity of mutant FOD-V, Table 6 (372nd lysine replaced with valine); details: for Kcat: substrate glycated amino acid
Experimental: as §1, §2, §3, §4, §5

[6] = molecular target: Fusarium oxysporum IFO-9972 fructosyl amino acid oxidase (FOD), mutant with 372nd lysine of SEQ ID NO: 1 replaced with cysteine (Fusarium oxysporum, UniProt X0D315, K373C); assay: Substrate specificity of mutant FOD, Table 6 (372nd lysine replaced with cysteine); details: for Kcat: substrate glycated amino acid
Experimental: as §1, §2, §3, §4

[7] = molecular target: Fusarium oxysporum IFO-9972 fructosyl amino acid oxidase (FOD), mutant with 372nd lysine of SEQ ID NO: 1 replaced with threonine (Fusarium oxysporum, UniProt X0D315, K373T); assay: Substrate specificity of mutant FOD, Table 6 (372nd lysine replaced with threonine); details: for Kcat: substrate glycated amino acid
Experimental: as §1, §2, §3, §4

[8] = molecular target: Fusarium oxysporum IFO-9972 fructosyl amino acid oxidase (FOD), wild type (372nd lysine), SEQ ID NO: 1 (Fusarium oxysporum, UniProt X0D315); assay: Substrate specificity of FOD, Table 6 (372nd amino acid Lysine, wild type); details: for Kcat: substrate glycated amino acid
Experimental: as §1, §2, §3, §4

[9] = molecular target: Fusarium oxysporum IFO-9972 fructosyl amino acid oxidase (FOD), mutant FOD-W, 372nd lysine of SEQ ID NO: 1 replaced with tryptophan, SEQ ID NO: 2 (Fusarium oxysporum, UniProt X0D315, K373W); assay: Substrate specificity and Km of mutant FOD-W (372nd lysine replaced with tryptophan); details: substrate glycated amino acid, "below limit" = below the detection limit
Experimental: as §1, §2, §3
as §4, with “protein. […]” for “protein.”

[10] = test system: G-I substrate solution (Glovenin I: immunoglobulin preparation); assay: Activity of various proteases on G-I substrate solution (R-FOD assay); details: pH 8.0, 37° C. for 30 minutes
Experimental: (§6) • 1. […] GA % was assayed using a glycated albumin analyzer (GAA-2000, manufactured by ARKRAY, Inc.). • 2. G-II and III substrate solutions, FRA value=48 μmol/L [Globulins Human Cohn Fraction II and III; 16.9 mg/ml (manufactured by Sigma-Aldrich Co.)] • 3. G-IV substrate solution, FRA value=26 μmol/L [Globulins Human Cohn Fraction IV; 6 mg/ml (manufactured by Sigma-Aldrich Co.)] • 4. G-I substrate solution, FRA value=77 μmol/L [Glovenin I: immunoglobulin preparation (manufactured by Takeda Chemical Industries, Ltd.)] • 5. Hb substrate solution: Hemoglobin Human; 55 mg/ml, glycated hemoglobin rate: HbA1c=4.5% [manufactured by Sigma-Aldrich Co., the HbA1c value was determined using a glycated hemoglobin analyzer (Hi-Auto A1C HA-8150, manufactured by ARKRAY, Inc.)]. […]
(§7) 300 μl of the above reaction solution for assaying glycated amino acids was added to a cell and incubated for three minutes at 37° C. […] Absorbances (A0 blank and A1 blank) were measured. The reaction of protease with glycated proteins is indicated by the following absorbance change. ΔA=(A1−A0)−(A1 blank−A0 blank)

[11] = molecular target: T1, HSA substrate solution; Albumin Human (Homo sapiens, UniProt P02768); assay: Activity of various proteases on HSA substrate solution (released glycated amino acids/peptides assayed with R-FOD); details: pH 8.0; 37° C. for 30 minutes
T1 construct: purchased Sigma-Aldrich Co
T1 sequence (P02768 25-609): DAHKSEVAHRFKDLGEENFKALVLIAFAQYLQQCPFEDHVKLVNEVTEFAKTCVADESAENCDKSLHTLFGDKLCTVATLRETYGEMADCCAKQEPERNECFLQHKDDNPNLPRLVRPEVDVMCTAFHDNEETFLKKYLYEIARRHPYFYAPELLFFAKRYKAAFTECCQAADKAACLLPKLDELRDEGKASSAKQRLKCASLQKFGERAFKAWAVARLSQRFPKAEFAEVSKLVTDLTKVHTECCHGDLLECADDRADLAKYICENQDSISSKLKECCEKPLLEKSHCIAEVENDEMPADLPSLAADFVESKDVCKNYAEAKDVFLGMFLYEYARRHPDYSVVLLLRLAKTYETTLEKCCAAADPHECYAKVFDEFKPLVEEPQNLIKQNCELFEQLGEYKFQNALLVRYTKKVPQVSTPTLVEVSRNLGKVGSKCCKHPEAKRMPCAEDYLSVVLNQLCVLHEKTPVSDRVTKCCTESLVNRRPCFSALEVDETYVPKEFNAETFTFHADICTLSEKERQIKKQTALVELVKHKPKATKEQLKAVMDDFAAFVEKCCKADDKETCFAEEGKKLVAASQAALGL
Experimental: as §6, §7

[12] = molecular target: T2, Hb substrate solution: Hemoglobin Human (Homo sapiens, UniProt P68871+P69905); assay: Activity of various proteases on Hb substrate solution (R-FOD assay); details: pH 8.0; 37° C. for 60 minutes
T2 construct: purchased Sigma-Aldrich Co
T2 sequence (P69905 2-142 limits assumed): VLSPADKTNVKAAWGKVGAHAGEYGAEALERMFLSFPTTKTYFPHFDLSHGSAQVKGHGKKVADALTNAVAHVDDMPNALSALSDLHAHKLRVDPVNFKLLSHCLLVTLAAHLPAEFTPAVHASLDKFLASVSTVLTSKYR
T2 sequence (P68871 2-147 limits assumed): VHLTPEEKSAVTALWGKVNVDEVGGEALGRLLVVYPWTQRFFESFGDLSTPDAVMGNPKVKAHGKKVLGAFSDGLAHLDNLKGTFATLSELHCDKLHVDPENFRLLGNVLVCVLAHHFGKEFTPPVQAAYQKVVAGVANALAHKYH
Experimental: as §6, §7

Molecule: O=C(N[C@@H](CCCCNCC1(O)OC[C@@H](O)[C@@H](O)[C@@H]1O)C(=O)O)OCc1ccccc1 (stereo partly drawn) [glycated lysine, α-carbobenzoxy-ε-D-1-deoxy-fructosyl lysine]
- Kcat reactivity ratio (a)/(b), glycated lysine/glycated valine [1]: 745
- Kcat [1]: 853
- Kcat reactivity ratio (a)/(b), glycated lysine/glycated valine [2]: 1480
- Kcat [2]: 1790
- Kcat reactivity ratio (a)/(b), glycated lysine/glycated valine [3]: 747
- Kcat [3]: 1250
- Kcat reactivity ratio (a)/(b), glycated lysine/glycated valine [4]: 788
- Kcat [4]: 351
- Kcat reactivity ratio (a)/(b), glycated lysine/glycated valine [5]: 1420
- Kcat [5]: 1470
- Kcat reactivity ratio (a)/(b), glycated lysine/glycated valine [6]: 1560
- Kcat [6]: 569
- Kcat reactivity ratio (a)/(b), glycated lysine/glycated valine [7]: 2010
- Kcat [7]: 952
- Kcat reactivity ratio (a)/(b), glycated lysine/glycated valine [8]: 27.1
- Kcat [8]: 14900
- Kcat [9]: 248

Molecule: CC(C)[C@H](NCC1(O)OC[C@@H](O)[C@@H](O)[C@@H]1O)C(=O)O (some centres unmarked) [glycated valine, 1-deoxy-fructosyl valine]
- Kcat [1]: 1.14
- Kcat [2]: 1.21
- Kcat [3]: 1.68
- Kcat [4]: 0.45
- Kcat [5]: 1.04
- Kcat [6]: 0.37
- Kcat [7]: 0.47
- Kcat [8]: 549
- Kcat [9]: below limit

Molecule: Chymotrypsin
- ΔA Gl [10]: 103 mAbs
- ΔA HSA [11]: 25 mAbs
- ΔA Hb [12]: 7 mAbs

Molecule: Pancreatin
- ΔA Gl [10]: 100 mAbs
- ΔA HSA [11]: 52 mAbs
- ΔA Hb [12]: 17 mAbs
